How the values were obtained:
[1] = system: CREB phosphorylation in arcuate neurons; assay: CREB phosphorylation in hypothalamic explant cultures (immunofluorescence of p-CREB); format: cell-based, mice; settings: hypothalamic explants treated with serotonin
Procedure: FIG. 18. (A) Western blot analysis of CREB phosphorylation and CREB in hypothalamic explants treated with PBS, serotonin (50 µM), Htr1a antagonist (LY426955) (50 µM) or serotonin (50 µM)+Htr1a antagonist (LY426955) (50 µM). (B) Analysis of CREB phosphorylation by immunofluorescence using P-CREB (S133) antibody. Immunofluorescence was performed on coronal sections of wild type (WT) hypothalamic explants previously treated with, PBS, 50 µM serotonin, 50 µM Htr1a antagonist (LY426955) or 50 µM serotonin+50 µM Htr1a antagonist (LY426955) for 30 min. The first row represents large bright field images of hypothalamic sections and the immunofluorescence analysis of the restricted hypothalamic region containing the Arcuate (Arc) neurons. Ventromedial hypothalamus (VMH) and Arcuate (Arc) are outlined with dashed. (C-D) Analysis of the appetite of CrebPomc−/− mice. (C) Measurement of the food intake (g) within 12 hours and 24 hours and (D) body weight analysis in WT, CrebPomc+/− and CrebPomc−/− mice. *(p<0.05, SEM). (E) Real-time PCR analysis of Mc4r, Pomc-1, Cart, Mch, Hypocretine and Npy expression in hypothalamus of WT and CrebPomc−/− mice. *(p<0.05, SEM).
Htr1a is a […] coupled receptor that signals through the cAMP-PKA-dependent pathway. […]

[2] = system: c-Fos expression in neurons of the paraventricular and arcuate nuclei; assay: Melanocortin sensitivity analysis: c-Fos expression after ICV Mc4r agonist; format: in vivo; settings: ICV infusion, both WT and Tph2-/- mice
Procedure: A survey was carried out of the expression of genes in hypothalamic neurons that may mediate leptin regulation of appetite and the expression of which is perturbed in Tph2−/− mice. […] Two observations support the notion that the appetite phenotype of the Tph2−/− mice is caused, at least in part, by an increase in melanocortin signaling. […] Moreover, Mc4r expression was increased ˜2 fold in Htr1a−/− and ˜1.6 fold in Htr2bPomc−/− mice, but was unaffected in Htr2c−/− mice (FIG. 6J and data not shown).
To analyze changes in melanocortin sensitivity in Tph2−/− mice, MTII (2 μg) or saline was administered (ICV) into WT and Tph2−/− mice. 3 hours later mice were transcardially perfused with 4% PFA, brains were dissected and postfixed in 4% PFA overnight at 4° C. Following cryoprotection in 20% sucrose, brains were coronally sectioned at 30 μm thickness. For colorimetric cFos immunohistochemistry, sections were incubated for 16 hrs at 4° C. in rabbit anti-cFos antiserum (Ab-5; 1:3000 dilution; Calbiochem), incubated with biotinylated goat anti-rabbit IgG secondary antiserum (1:600; Vector laboratories) for 2 h at room temperature, and then incubated in avidin biotin complex (Vector Labs). Color was developed using Vector ABC kit.

phosphorylation of Stat3 = assay: Co-immunolocalization of Stat3 phosphorylation in serotonergic neurons of the brainstem after acute leptin ICV infusion; format: in vivo, mice
Source text: Multiple lines of evidence indicate that it is by inhibiting BDS synthesis that leptin prevents bone mass accrual. First, ObRb, the signaling form of the leptin receptor, is expressed in β-galactosidase-positive Tph2-expressing neurons (FIG. 5A). […] Leptin inhibits synthesis of BDS, which in turn reduces, by signaling in VMH neurons, the sympathetic tone; as a result leptin prevents bone mass accrual.
Animals were anaesthetized and placed on a stereotaxic instrument (Stoelting) and the depth of anesthesia was determined by the animal's respiratory pattern and by pinching the animal's foot for reflex response. The dorsal part of the animal's head was shaved and prepped with betadine scrub, and 70% alcohol. The skin covering the head was then cut (approximately a 1 cm incision) and the calvaria exposed. A hole was drilled upon bregma using a 28-gauge needle. A 28 gauze needle canula (Brain infusion kit II, Alzet) was then implanted into the hole reaching the third cerebral ventricle according to the following coordinates: midline, −0.3 AP. 3 mm ventral (0 point Bregma). Using a Hamilton syringe, PBS or leptin (2 μg) was injected into the 3rd cerebral ventricle. The dorsal edges of the incision were coated with Bupivicaine 0.25% (<2 mg/kg), joined and closed with 2 sterile clips. […]

Tph2 expression = assay: qPCR analysis of Tph2 expression following leptin ICV infusion; format: in vivo; settings: WT mice, different doses and time points
Source text: FIG. 5. Leptin inhibits bone mass accrual by inhibiting brain-derived serotonin synthesis. (A) In situ hybridization analysis and co-immunolocalization of ObRb expression in serotonergic neurons. (B-C) qPCR analysis of Tph2 expression (B) and brainstem serotonin content (C) at different ages in WT and ob/ob female mice. (D-E) qPCR analysis of Tph2 expression following intra-cerebroventricular (ICV) infusion of leptin at different doses (D) and at different time points (E) in WT mice. (F) Immunohistochemical analysis of STAT3 phosphorylation in the dorsal and median raphe following leptin ICV. Arrows indicate pSTAT3/β-Gal positive cells. (G-H) qPCR analysis of Tph2 expression (G) and brainstem serotonin content (H) in WT, ob/ob and ob/ob; Tph2+/− mice. (I) Histomorphometric analysis of vertebrae of ob/ob and ob/ob; Tph2+/− mice. (J) Representative traces of action potentials recorded from WT mice before, during and after the application of leptin (100 nM). R.M.P. −43.0 mV. (K-L) Analysis of serotonergic neuron action potential (AP) frequency in brainstem slices from WT (K) and ObRbSERT−/− (L) mice. All panels (except D, E, G, H and K) *P<0.05; **P<0.01 (Student's t test). Error bars, SEM. […]
RNA isolation, cDNA preparation and qPCR analysis was carried out following standard protocols. Genotypes of all the mice were determined by PCR. […]

serotonergic neurons = assay: Whole cell patch clamp recording in brain slices containing dorsal raphe; format: cell-based; settings: WT mice
Procedure: The mediation of peripheral hormone action on the output of the brain relies on altered neuronal circuit activity. Interaction between neuronal circuits hinges on electric properties of neurons, particularly on the generation of action potentials. Thus, to test whether leptin directly alters serotonin output from brainstem neurons, the responses of serotonin-producing cells to leptin were analyzed with whole cell patch clamp recording in brain slices containing dorsal raphe (DR). Slices were taken from WT animals and from mice lacking ObRb selectively in Tph2-expressing neurons (ObRbSERT−/− mice). Serotonergic neurons were identified according to their unique properties (long-duration action potential, activation by norepinephrine and inhibition by serotonin itself) (Liu et al., 2002, J. Neurosci. 22:9453-9464). Since serotonergic neurons are usually quiescent in slices because of the loss of noradrenergic inputs, action potentials in these neurons were restored by application of alpha-1 adrenergic agonist phenylephrine (3 μM) in the bath (Liu et al., 2002, J. Neurosci. 22:9453-9464). […]
Whole-cell current clamp was performed to observe action potentials in DR seritonergic (5-HT) neurons with a Multiclamp 700A amplifier (Axon instrument, CA). […] Electrophysiological data were analyzed with Axograph 4.9 and plotted with Igor Pro software (WaveMetrics, Lake Oswego, Oreg.).

NCCc1c[nH]c2ccc(O)cc12 [serotonin] was tested, and the CREB phosphorylation [1] was “increased CREB phosphorylation in arcuate neurons”.

MTII was tested, and the “c-Fos expression in neurons of the paraventricular and arcuate nuclei” value [2] was “increased c-Fos expression”.

In the case of “leptin: adipocyte-derived hormone that regulates appetite and energy expenditure”, the “phosphorylation of Stat3 in serotonergic neurons of the brainstem” value (phosphorylation of Stat3; ObRbSERT-/- mice) is reported as “dramatically reduced”, the “phosphorylation of Stat3 in serotonergic neurons of the brainstem” value (phosphorylation of Stat3; WT mice) is reported as “increased” and the Tph2 expression (Tph2 expression) is reported as “decreased Tph2 expression in a time- and dose-dependent manner”. For the same molecule, the “action potential frequency in serotonergic neurons” value (serotonergic neurons) was “significantly decreased action potential frequency”.

— patent US20120115778A1, “Methods of Suppressing Appetite by the Administration of Antagonists of the Serotonin HTR1a or HTR2b Receptors or Inhibitors of TPH2” (The Trustees of Columbia University in the City of New York, priority 2009, published 2012)
